# Data as given in ChEMBL document CHEMBL5550147, “Supramolecular prodrug of SN38 based on endogenous albumin and SN38 prodrug modified with semaglutide side chain to improve the tumor distribution” (Bioorg Med Chem, 2024).
# The source made the active and inactive calls. The calls are words filed in the database; no cut-off is given here.
# What was measured:
# [1] = Drug distribution in lung of nude mouse xenografted with human HT-29 cells at 15 mg/kg, iv measured for 1 to 48 hrs by HPLC analysis; type: ADME, organism-based; conditions: in vivo, time 1-48 hrs
# HT-29 [2] = assay: Anti-tumor activity against human HT-29 cells xenografted in nude mouse at 15 mg/kg, iv measured for 35 days relative to control; type: functional; conditions: HT-29, 840 h, time 35 day, read-out: TGI
# [3] = Cmax in BALB/c mouse at 28 mg/kg, iv measured for 1 to 72 hrs by HPLC analysis; type: ADME, organism-based; conditions: in vivo, time 1-72 hrs
# HT-29 [4] = assay: Anti-tumor activity against human HT-29 cells xenografted in nude mouse at 28 mg/kg, iv measured for 35 days relative to control; type: functional; conditions: HT-29, 840 h, time 35 day, read-out: TGI
# [5] = Stability in mouse plasma assessed as half life by HPLC analysis; type: ADME, cell-free
# [6] = Drug accumulation in human HT-29 cells xenografted in nude mouse assessed as fold increase at 28 mg/kg, iv measured for 1 hr by HPLC analysis relative to Irinotecan; type: ADME, organism-based; conditions: in vivo
# HT-29 [7] = assay: Cytotoxicity against human HT-29 cells incubated for 48 hrs by MTT assay; type: functional, cell-based
# [8] = Volume of distribution in BALB/c mouse at 28 mg/kg, iv measured for 1 to 72 hrs by HPLC analysis; type: ADME, organism-based; conditions: in vivo, time 1-72 hrs
# A549 = assay: Cytotoxicity against human A549 cells incubated for 48 hrs by MTT assay; type: functional, cell-based
# [9] = Half life in BALB/c mouse at 28 mg/kg, iv measured for 1 to 72 hrs by HPLC analysis; type: ADME, organism-based; conditions: in vivo, time 1-72 hrs
# HepG2 = assay: Cytotoxicity against human HepG2 cells incubated for 48 hrs by MTT assay; type: functional, cell-based
# [10] = Prodrug conversion in mouse plasma assessed as drug release incubated for 24 hrs by HPLC analysis; type: ADME, cell-free
# [11] = Stability of compound in PBS at pH 7.4 at 50 uM by HPLC analysis; type: physicochemical; conditions: buffer, pH 7.4, 50 µM
# [12] = Drug distribution in lung of nude mouse xenografted with human HT-29 cells at 17.9 mg/kg, iv measured for 1 to 48 hrs by HPLC analysis; type: ADME, organism-based; conditions: in vivo, time 1-48 hrs
# [13] = Drug accumulation in lung of nude mouse xenografted with human HT-29 cells assessed as fold change in free SN38 at 28 mg/kg, iv measured for 50 hrs by HPLC analysis relative to Irinotecan; type: ADME, organism-based; conditions: in vivo
# MG-63 = assay: Cytotoxicity against human MG-63 cells incubated for 48 hrs by MTT assay; type: functional, cell-based
# [14] = AUC (0 to infinity) in BALB/c mouse at 28 mg/kg, iv measured for 1 to 72 hrs by HPLC analysis; type: ADME, organism-based; conditions: in vivo, time 1-72 hrs
# [15] = Stability of compound in PBS at pH 6.5 at 50 uM by HPLC analysis; type: physicochemical; conditions: buffer, pH 6.5, 50 µM
# [16] = Clearance in BALB/c mouse at 28 mg/kg, iv measured for 1 to 72 hrs by HPLC analysis; type: ADME, organism-based; conditions: in vivo, time 1-72 hrs
# [17] = Drug accumulation in human HT-29 cells xenografted in nude mouse assessed as fold increase at 28 mg/kg, iv measured for 24 hrs by HPLC analysis relative to Irinotecan; type: ADME, organism-based; conditions: in vivo
# [18] = Toxicity in nude mouse xenografted with human HT-29 cells assessed as body weight change at 28 mg/kg, iv measured for 35 days; type: organism-based; conditions: in vivo, 840 h, time 35 day
# MIA PaCa-2 = assay: Cytotoxicity against human MIA PaCa-2 cells incubated for 48 hrs by MTT assay; type: functional, cell-based
# [19] = Drug accumulation in human HT-29 cells xenografted in nude mouse assessed as fold increase at 28 mg/kg, iv measured for 6 hrs by HPLC analysis relative to Irinotecan; type: ADME, organism-based; conditions: in vivo
# [20] = Drug accumulation in human HT-29 cells xenografted in nude mouse assessed as fold increase at 28 mg/kg, iv measured for 48 hrs by HPLC analysis relative to Irinotecan; type: ADME, organism-based; conditions: in vivo
smiles,measurement,setting,value
CCc1c2c(nc3ccc(OC(=O)N4CCC(N5CCCCC5)CC4)cc13)-c1cc3c(c(=O)n1C2)COC(=O)[C@]3(O)CC [IRINOTECAN],Drug uptake,[1],Active
same,inhibition in vivo at 15 mg/kg,HT-29 [2],62.3%
CCc1c2c(nc3ccc(O)cc13)-c1cc3c(c(=O)n1C2)COC(=O)[C@@]3(CC)OC(=O)CNC(=O)CCCCCCCCCCCCCCCCC(=O)O,Cmax,[3],3670 ng/mL
same,inhibition in vivo at 28 mg/kg,HT-29 [4],71%
same,half-life,[5],840 min
same,fold change (FC),[6],2.5
same,Activity,HT-29 [7],Active
same,Vd,[8],0.191 L
same,Activity,A549,Active
same,half-life,[9],262 min
same,Activity,HepG2,Active
same,Drug metabolism,[10],Metabolite_Detected
same,Stability,[11],Stable
same,Drug uptake,[12],Active
same,fold change (FC),[13],0.3
same,Activity,MG-63,Active
same,AUC,[14],23.13 mg·h/L
same,Stability,[15],Stable
same,CL,[16],0.031 L/h/kg
same,fold change (FC),[17],1.6
same,Activity,[18],Non-Toxic
same,Activity,MIA PaCa-2,Active
same,fold change (FC),[19],2.1
same,fold change (FC),[20],7.8
